This experiment deals with Gastrin/cholecystokinin type B receptor (Cavia porcellus). Nature of the experiment: Tested for the 50% inhibition level against [125I]- gastrin binding to guinea pig gastric glands.

As to `CSCC[C@H](NC(=O)[C@H](Cc1c[nH]c2ccccc12)NC(=O)CCC(=O)N(Cc1ccccc1)N=NCCCl)C(=O)N[C@@H](CC(=O)O)C(=O)N[C@@H](Cc1ccccc1)C(N)=O` [CBS-4], the 50% effective concentration (EC50) (in general, the midpoint of the concentration-response curve) came out at 130 nM. Consider `CSCC[C@H](NC(=O)[C@H](Cc1c[nH]c2ccccc12)NC(=O)CCNC(=O)CCC(=O)N(Cc1ccccc1)N=NCCCl)C(=O)N[C@@H](CC(=O)O)C(=O)N[C@@H](Cc1ccccc1)C(N)=O` [CBS-5], for which the EC50 amounted to 80 nM.

The record behind these values is BindingDB's records for doi:10.1021/jm00048a016 (National Cancer Institute-Frederick, 1994).
